Data from PMC9598656, “In Vitro Activity of Robenidine Analogues NCL259 and NCL265 against Gram-Negative Pathogens” (Antibiotics, 2022).

Tests used:
E. coli ATCC 10763 = assay: MIC, broth micro-dilution; format: cell-based, Escherichia coli; conditions: Escherichia coli, ATCC10763, read-out: MIC, Single Drug
Procedure: (§1) A variety of Gram-negative reference strains (E. coli ATCC 25922, E. coli ATCC 10763, P. aeruginosa PAO1, P. aeruginosa ATCC 27853, A. baumannii ATCC 12457, A. baumannii ATCC 19606, K. pneumoniae ATCC 4352 and K. pneumoniae ATCC 33495) were used for initial screening and combination testing with PMB. The organisms were speciated using biochemical testing and MALDI-TOF mass spectrometry (Bruker, Preston, VIC, Australia). Activity testing of NCL259 and NCL265 was also carried out on 51 extraintestinal clinical E. coli isolates from companion animals, and 83 porcine and bovine enterotoxigenic E. coli (ETEC) isolates from the Australian Centre for Antimicrobial Resistance Ecology collection. E. coli wild-type (BW 25113) and its mutant BW 25113∆AcrB, in which the inner membrane component AcrB of the tripartite multidrug efflux system AcrA/AcrB/TolC has been deleted, were obtained from the bacterial collection held at Health and Biomedical Innovation, Clinical and Health Sciences, The University of South Australia. All isolates were cultured on sheep blood agar (SBA) plates at 37 °C for 18 h before being subcultured into Luria Bertaini (LB) (Oxoid, Scoresby, VIC, Australia) broth and grown to A600nm = 0.5 (equivalent to approx. 1.5 × 10^8 colony-forming units (CFU)/mL).
(§2) MICs for NCL259 and NCL265 (serial two-fold dilutions commencing at 256 µg/mL) were determined (in duplicate) in round bottom 96–well microtitre trays (Sarstedt 82.1582.001), using the broth micro-dilution method recommended by the Clinical and Laboratory Standards Institute (CLSI). We have shown previously that robenidine can chelate calcium ions from cation-adjusted Mueller-Hinton broth, which causes the loss of activity of robenidine. Therefore, LB broth was used in this study. Additionally, considering the low solubility of robenidine and its analogues in aqueous solutions, two-fold serial dilutions of stock solutions of these compounds were prepared in 100% DMSO [21]. The MIC for ampicillin against each isolate was determined for each test to serve as an internal quality control. The MICs of isolates were determined by visual reading and using an EnSpire Multimode Plate Reader 2300 at A600nm.

E. coli ATCC 25922 = assay: MIC, broth micro-dilution; format: cell-based, Escherichia coli; conditions: Escherichia coli, ATCC25922, read-out: MIC, Single Drug
Procedure: as §1, §2

P. aeruginosa ATCC 27853 = assay: Checkerboard assay with PMB; format: cell-based, Pseudomonas aeruginosa; conditions: for MIC, Combination: NCL259 or NCL265 with PMB; for Combination Effect / FICI: with PMB
Procedure: (§3) MICs of NCL259 or NCL265 in the presence of the efflux pump inhibitor, PAβN were determined using a checkerboard assay. […] Briefly, a two-fold serial dilution of each antimicrobial solution was prepared in its appropriate solvent (e.g., DMSO for robenidine analogues and Milli-Q water for PAβN), and 1 μL of each dilution was added from wells 12 to 3 (12.8–0.25 μg/mL for robenidine analogues, and 32–2 μg/mL for PAβN). Thereafter, 89 μL of LB broth was added to each well followed by the addition of 10 μL of bacterial suspension (1–5 × 10^6 CFU/mL) to each well. In this manner, the final concentration of DMSO in each well was 1%. The plate was subsequently incubated at 37 °C for 24 h. The resazurin assay was used for assessment of drug susceptibility of NCL259 and NCL265 (Supplementary Table S1–S6). The same method was also used to test the MICs of NCL259 or NCL265 in the presence of PMB against a range of Gram-negative reference strains (E. coli ATCC 25922, E. coli ATCC 10763, P. aeruginosa PAO1, P. aeruginosa ATCC 27853, A. baumannii ATCC 12457, A. baumannii ATCC 19606, K. pneumoniae ATCC 4352 and K. pneumoniae ATCC 33495). Stock solutions were prepared prior to use (25.6–0.25 mg/mL for robenidine analogues; 12.8–0.25 mg/mL for PMB). The interaction of two antibiotics was calculated as the fractional inhibitory concentration index (FICI) using the following formula:(1) FICI=MICA in combination/MICA alone+MICB in combination/MICB alone where A is NCL259 or NCL265 and B is PAβN or PMB. According to FICI calculations, the interaction between two compounds were interpreted as follows: synergistic (FICI ≤ 0.5); additive or partially synergistic (0.5 < FICI ≤ 1); indifferent (1 < FICI ≤ 4); and antagonistic (FICI > 4), as described previously. The dose reduction index (DRI) was used to describe the difference between the effective doses of NCL259 or NCL265 in combination with PMB or PAβN in comparison to their individual doses, using the following formula:(2) DRI=MICA alone/MICA in combination
(§4) Evaluation of DRI is important clinically because it can allow the dose of a potentially toxic drug to be lowered in combination with another compound without reducing the drug’s efficacy. A DRI higher than 1 is viewed as beneficial.

P. aeruginosa PAO1 = assay: Checkerboard assay with PMB; format: cell-based, Pseudomonas aeruginosa; conditions: for MIC, Combination: NCL259 or NCL265 with PMB; for Combination Effect / FICI: with PMB
Procedure: as §3, §4

[1] = tested on: E. coli-type strains ATCC 11229 and ATCC 25922; set-up: method as in PMID 30318716, PMID 31312589; conditions: E. coli ATCC 11229 and ATCC 25922; cited from earlier work
K. oxytoca 13GNB–582 = assay: MIC, broth micro-dilution; format: cell-based; conditions: Klebsiella oxytoca, read-out: MIC, Single Drug
Procedure: as §2, §3

K. pneumoniae 13GNB–550 = assay: MIC, broth micro-dilution; format: cell-based; conditions: Klebsiella pneumoniae, read-out: MIC, Single Drug
Procedure: as §2, §3

K. pneumoniae 13GNB–429 = assay: MIC, broth micro-dilution; format: cell-based; conditions: Klebsiella pneumoniae, read-out: MIC, Single Drug
Procedure: as §2, §3

[2] = tested on: human Gram-negative isolates comprising 19 E. aerogenes, 20 E. coli, 19 E. cloacae, 20 K. pneumoniae and 16 K. oxytoca; set-up: method as in PMID 30318716; conditions: panel of human Gram-negative isolates; cited from earlier work
A. baumannii ATCC 19606 = assay: Checkerboard assay with PMB; format: cell-based, Acinetobacter baumannii; conditions: for MIC, Combination: NCL259 or NCL265 with PMB; for Combination Effect / FICI: with PMB
Procedure: as §3, §4

A. baumannii ATCC 12457 = assay: Checkerboard assay with PMB; format: cell-based, Acinetobacter baumannii; conditions: for MIC, Combination: NCL259 or NCL265 with PMB; for Combination Effect / FICI: with PMB
Procedure: as §3, §4

[H]/N=C(\N)NN=C(CCCCCC)c1ccc(Cl)cc1 [NCL265, (E)-2-(1-(4-chlorophenyl)heptylidene)hydrazine-1-carboximidamide]
MIC (E. coli ATCC 10763): 64 µg/mL | MIC (E. coli ATCC 25922): 4 µg/mL | MIC, Combination (P. aeruginosa ATCC 27853): 0.5 µg/mL | Dose Reduction Index (DRI) PMB:NCL265 (P. aeruginosa ATCC 27853; PMB + NCL265): 64 | Combination Effect (P. aeruginosa ATCC 27853): Additivity (additive or partially synergistic, 0.5 < FICI ≤ 1) | FICI (P. aeruginosa ATCC 27853): 0.516 | MIC, Combination (P. aeruginosa PAO1): 0.25 µg/mL | Dose Reduction Index (DRI) PMB:NCL265 (P. aeruginosa PAO1; PMB + NCL265): 256 | Combination Effect (P. aeruginosa PAO1): Additivity (additive or partially synergistic, 0.5 < FICI ≤ 1) | FICI (P. aeruginosa PAO1): 0.504 | MBC [1]: 8 to 16 µg/mL | MIC [1]: 8 to 16 µg/mL | MIC (K. oxytoca 13GNB–582): > 256 µg/mL | MIC (K. pneumoniae 13GNB–550): > 256 µg/mL | MIC (K. pneumoniae 13GNB–429): > 256 µg/mL | MIC range [2]: 2 to 64 µg/mL | MIC, Combination (A. baumannii ATCC 19606): 0.5 µg/mL | Dose Reduction Index (DRI) PMB:NCL265 (A. baumannii ATCC 19606; PMB + NCL265): 4 | Combination Effect (A. baumannii ATCC 19606): Additivity (additive or partially synergistic, 0.5 < FICI ≤ 1) | FICI (A. baumannii ATCC 19606): 0.75 | MIC, Combination (A. baumannii ATCC 12457): 0.5 µg/mL | Dose Reduction Index (DRI) PMB:NCL265 (A. baumannii ATCC 12457; PMB + NCL265): 4 | Combination Effect (A. baumannii ATCC 12457): Additivity (additive or partially synergistic, 0.5 < FICI ≤ 1) | FICI (A. baumannii ATCC 12457): 0.75

[H]/N=C(\N)NN=C(CC1CCCCC1)c1ccc(Cl)cc1 [NCL259, (E)-2-(1-(4-chlorophenyl)-2-cyclohexylethylidene)hydrazine-1-carboximidamide]
MIC (E. coli ATCC 10763): 64 µg/mL | MIC (E. coli ATCC 25922): 16 µg/mL | MIC, Combination (P. aeruginosa ATCC 27853): 2 µg/mL | Dose Reduction Index (DRI) PMB:NCL259 (P. aeruginosa ATCC 27853; PMB + NCL259): 32 | Combination Effect (P. aeruginosa ATCC 27853): Additivity (additive or partially synergistic, 0.5 < FICI ≤ 1) | FICI (P. aeruginosa ATCC 27853): 0.531 | MIC, Combination (P. aeruginosa PAO1): 1 µg/mL | Dose Reduction Index (DRI) PMB:NCL259 (P. aeruginosa PAO1; PMB + NCL259): 64 | Combination Effect (P. aeruginosa PAO1): Additivity (additive or partially synergistic, 0.5 < FICI ≤ 1) | FICI (P. aeruginosa PAO1): 0.516 | MBC [1]: 8 to 16 µg/mL | MIC [1]: 8 to 16 µg/mL | MIC (K. oxytoca 13GNB–582): > 256 µg/mL | MIC (K. pneumoniae 13GNB–550): > 256 µg/mL | MIC (K. pneumoniae 13GNB–429): > 256 µg/mL | MIC range [2]: 2 to 64 µg/mL | MIC, Combination (A. baumannii ATCC 19606): 1 µg/mL | Dose Reduction Index (DRI) PMB:NCL259 (A. baumannii ATCC 19606; PMB + NCL259): 8 | Combination Effect (A. baumannii ATCC 19606): Additivity (additive or partially synergistic, 0.5 < FICI ≤ 1) | FICI (A. baumannii ATCC 19606): 0.625 | MIC, Combination (A. baumannii ATCC 12457): 1 µg/mL | Dose Reduction Index (DRI) PMB:NCL259 (A. baumannii ATCC 12457; PMB + NCL259): 8 | Combination Effect (A. baumannii ATCC 12457): Additivity (additive or partially synergistic, 0.5 < FICI ≤ 1) | FICI (A. baumannii ATCC 12457): 0.625
